Publication PMC3228261 (Chemistry (Weinheim an der Bergstrasse, Germany), 2011)
Like-named read-outs stand apart in the source and are kept apart here.

Assays:
in vitro = conditions: human
[1] = test system: human primary foreskin fibroblast (HFF) cells; assay: cells; conditions: 72 h, read-out: EC50 (HFF)
[2] = test system: human primary foreskin fibroblast (HFF) cells; conditions: read-out: EC50 (HFF), viable cells after 72 h, triplicates
L-929 mouse fibroblasts = assay: MTT test, growth inhibition of L-929 mouse fibroblasts; assay type: cell-based; conditions: read-out: IC50 (L929), 5 d incubation, MTT assay

SMILES	EC50 at 72 h (in vitro) [µM]	EC50 [1] [µM]	EC50 [2] [µM]	IC50 (L-929 mouse fibroblasts) [µM]
C/C1=C\[C@H](C)C[C@H](C)OC(=O)C[C@H](c2ccc(O)cc2)NC(=O)[C@@H](Cc2c(Br)[nH]c3ccccc23)N(C)C(=O)[C@H](C)NC(=O)[C@@H](C)C1 [jasplakinolide_np (1), jasplakinolide]	~0.03	0.028 ± 0.004	–	–
CO[C@@H]1C(=O)O[C@H](C)[C@@H](C)C=C(C)C[C@H](C)C(=O)N[C@@H](C)C(=O)N(C)[C@H](Cc2c(Cl)[nH]c3ccccc23)C(=O)NC1c1ccc(O)cc1 (stereo partly drawn) [chon B_np (3), chondramide B]	–	–	0.044 ± 0.005	–
C/C1=C\[C@@H](C)[C@@H](C)OC(=O)C[C@H](c2ccc(O)cc2)NC(=O)[C@@H](Cc2c[nH]c3ccccc23)N(C)C(=O)[C@H](C)NC(=O)[C@@H](C)C1 [chon C_np (4), chondramide C]	–	–	0.036 ± 0.007	–
CO[C@@H]1C(=O)O[C@H](C)[C@H](C)/C=C(\C)C[C@H](C)C(=O)N[C@@H](C)C(=O)N(C)[C@H](Cc2c[nH]c3ccccc23)C(=O)N[C@H]1c1ccc(O)cc1 [chon A_np (2a), chondramide A]	–	–	0.118 ± 0.023	0.056 ± 0.013
